Test results as given in patent publication US20050181021A1, “Vitamin E phosphate/phosphatidycholine liposomes to protect from or ameliorate cell damage” (priority 1992, published 2005).

Tests used:
male albino mice = assay: Allyl alcohol-induced liver injury in mice (SGPT); assay type: in vivo; conditions: allyl alcohol alone, 50 mg/kg single intraperitoneal dose, 4 hours
Method: Influence of vitamin E phosphate/phosphatidylcholine liposomes (see example 1) on Allyl alcohol-induced liver injury was evaluated in male albino mice.

Liver cells [1] = assay: Phosphatidylcholine formation in liver cells dysfunctional due to ethanol exposure; assay type: cell-based; conditions: cells exposed to ethanol
Method: Liver cells which had become dysfunctional due to exposure to ethanol were incubated 24 hours with vitamin E phosphate/phosphatidylcholine liposomes. The pmoles of phosphatidylcholine formed per minute/mg protein was then measured with the following results: […]

cultured liver cells = assay: Reversal of ethanol damage in cultured liver cells (phosphatidylcholine biosynthesis); assay type: cell-based; conditions: 96 h
Method: The use of vitamin E phosphate/phosphatidylcholine to effect reversal of damage from ethanol on liver cells was then studied. The cultured liver cells were incubated with 25 mM or 50 mM ethanol for 96 hours, at which time there is significant reduction in liver cell function (phosphatidylcholine biosynthesis). The effect of adding vitamin E phosphate/phosphatdylcholine after 72 hours was studied, and 24 hours later (96 hours after initial exposure to ethanol) values were obtained.

[2] = system: isolated liver cells (1000×g cell fraction); assay type: cell-based; conditions: phosphatidylcholine 100 μM, vitamin E phosphate 50 μm; for LCLP % control + SEM: in presence of 1 mM iron
Liver cells [3] = assay: Incorporation of labeled choline into phosphatidylcholine (PC biosynthesis) by liver cells with iron; assay type: cell-based
Excerpt: The study of effects on liver cells was also considered based on evaluation of effect on increase in the incorporation of labeled choline into phosphatidylcholine (phosphatidylcholine biosynthesis) by liver cells. Vitamin E phosphate/phosphatidylcholine produced greater beneficial effects than either vitamin E phosphate or phosphatidylcholine. [table]

[4] = Precipitation in the presence of divalent metal salts; assay type: physicochemical
Excerpt: Liposomes were made using salts of the vitamin E phosphate and phosphatidylcholine. These salts were protected by liposomes to avoid precipitation in the presence of 2^+ metal ions.

[5] = in presence of 1 mM iron, phosphatidylcholine 100 μM, vitamin E phosphate 50 μm

## C=CCO [Allyl alcohol]
Male albino mice
  SGPT % of control ± SEM: 330 ± 15 % of control

## CCO [ETOH, ethanol]
Liver cells [1]
  pmoles of phosphatidylcholine formed per minute/mg protein: 25 pmoles per minute/mg protein
Liver cells [1]; then incubated 24 hours in water
  pmoles of phosphatidylcholine formed per minute/mg protein: 27 pmoles per minute/mg protein
Cultured liver cells; 25 mM ethanol alone
  phosphatidylcholine biosynthesis % control ± SEM: 38 ± 2 % control
Cultured liver cells; 50 mM ethanol alone
  phosphatidylcholine biosynthesis % control ± SEM: 22 ± 1 % control

## Cc1c(C)c2c(c(C)c1OP(=O)(O)O)CCC(C)(CCCC(C)CCCC(C)CCCC(C)C)O2 (stereo not shown) [VEP, vitamin E phosphate]
[2]
  LCLP % control + SEM: 167 ± 3 % control
  iron-dependent lipid peroxidation in isolated liver cells (result in words): significantly reduced
Liver cells [3]; [5]
  PC biosynthesis % control + SEM: 145 ± 4 % control
[4]
  behaviour in the presence of divalent metal salts: precipitated

## [Fe] [iron]
Liver cells [3]; 1 mM iron alone
  PC biosynthesis % control + SEM: 254 ± 9 % control

## phosphatidylcholine [PC]
[2]
  LCLP % control + SEM: 281 ± 4 % control
  iron-dependent lipid peroxidation in isolated liver cells (result in words): significantly reduced
Liver cells [3]; [5]
  PC biosynthesis % control + SEM: 167 ± 4 % control
